Experimental data from ChEMBL document CHEMBL2021812, “Aryltriflates as a Neglected Moiety in Medicinal Chemistry: A Case Study from a Lead Optimization of CXCL8 Inhibitors” (ACS Med Chem Lett, 2011).

Assays:
Hepatocyte [1] = assay: Drug metabolism in rat hepatocytes assessed as (S)-2-(4-(trifluoromethylsulfonyloxy)phenyl)propanoic acid level at 10 uM after 60 mins; type: ADME, cell-based; settings: 1 h
Hepatocyte [2] = assay: Drug metabolism in rat hepatocytes assessed as (S)-2-(4-(trifluoromethylsulfonyloxy)phenyl)propanoic acid level at 10 uM after 30 mins; type: ADME, cell-based; settings: 0.5 h
Hepatocyte [3] = assay: Drug metabolism in rat hepatocytes assessed as (S)-2-(4-(trifluoromethylsulfonyloxy)phenyl)propanoic acid level at 10 uM after 15 mins; type: ADME, cell-based; settings: 0.25 h
Hepatocyte [4] = assay: Drug metabolism in human hepatocytes assessed as (S)-2-(4-(trifluoromethylsulfonyloxy)phenyl)propanoic acid level at 10 uM after 120 mins; type: ADME, cell-based; settings: 2 h
Hepatocyte [5] = assay: Drug metabolism in human hepatocytes assessed as (S)-2-(4-(trifluoromethylsulfonyloxy)phenyl)propanoic acid level at 10 uM after 90 mins; type: ADME, cell-based; settings: 1.5 h
Hepatocyte [6] = assay: Drug metabolism in human hepatocytes assessed as (S)-2-(4-(trifluoromethylsulfonyloxy)phenyl)propanoic acid level at 10 uM after 60 mins; type: ADME, cell-based; settings: 1 h
Hepatocyte [7] = assay: Drug metabolism in human hepatocytes assessed as (S)-2-(4-(trifluoromethylsulfonyloxy)phenyl)propanoic acid level at 10 uM after 30 mins; type: ADME, cell-based; settings: 0.5 h
Hepatocyte [8] = assay: Drug metabolism in human hepatocytes assessed as (S)-2-(4-(trifluoromethylsulfonyloxy)phenyl)propanoic acid level at 10 uM after 15 mins; type: ADME, cell-based; settings: 0.25 h
[9] = Chemical stability of the compound assessed as compound remaining at pH 9 after 2 hrs; type: physicochemical; settings: buffer, read-out: Stability
[10] = Chemical stability of the compound assessed as compound remaining at pH 3.5 after 2 hrs; type: physicochemical; settings: buffer, read-out: Stability
[11] = Metabolic stability in rat liver microsomes assessed as compound remaining at 1 uM preincubated for 10 mins measured after 30 mins; type: ADME, Microsome; settings: read-out: Stability
[12] = Metabolic stability in rat plasma assessed as compound remaining at 1 uM after 1 hr; type: ADME, cell-free; settings: read-out: Stability
CYP2C19 = CYP2C19 (Homo sapiens, UniProt P33261); assay: Inhibition of CYP2C19 using DBF as substrate at 10 uM; type: ADME; settings: probe DBF
CYP2C19, sequence (P33261 whole entry): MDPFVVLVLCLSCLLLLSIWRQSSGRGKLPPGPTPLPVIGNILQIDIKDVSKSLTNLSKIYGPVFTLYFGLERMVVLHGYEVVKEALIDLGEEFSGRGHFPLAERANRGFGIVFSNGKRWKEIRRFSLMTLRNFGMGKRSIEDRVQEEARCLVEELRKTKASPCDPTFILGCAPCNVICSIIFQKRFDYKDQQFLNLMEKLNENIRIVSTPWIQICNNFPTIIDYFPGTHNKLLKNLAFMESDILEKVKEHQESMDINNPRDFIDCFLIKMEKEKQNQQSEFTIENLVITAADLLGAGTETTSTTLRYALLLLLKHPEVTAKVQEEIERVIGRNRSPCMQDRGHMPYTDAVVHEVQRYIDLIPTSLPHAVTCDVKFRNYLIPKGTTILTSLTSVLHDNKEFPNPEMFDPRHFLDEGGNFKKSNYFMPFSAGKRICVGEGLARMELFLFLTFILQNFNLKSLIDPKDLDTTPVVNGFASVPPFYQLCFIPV

Hepatocyte [13] = assay: Drug metabolism in human hepatocytes assessed as (R)-2-(4-(trifluoromethylsulfonyloxy)phenyl)propanoic acid level at 10 uM after 15 mins; type: ADME, cell-based; settings: 0.25 h
Hepatocyte [14] = assay: Drug metabolism in human hepatocytes assessed as (R)-2-(4-(trifluoromethylsulfonyloxy)phenyl)propanoic acid level at 10 uM after 30 mins; type: ADME, cell-based; settings: 0.5 h
Hepatocyte [15] = assay: Drug metabolism in human hepatocytes assessed as (R)-2-(4-(trifluoromethylsulfonyloxy)phenyl)propanoic acid level at 10 uM after 60 mins; type: ADME, cell-based; settings: 1 h
Hepatocyte [16] = assay: Drug metabolism in human hepatocytes assessed as (R)-2-(4-(trifluoromethylsulfonyloxy)phenyl)propanoic acid level at 10 uM after 90 mins; type: ADME, cell-based; settings: 1.5 h
Hepatocyte [17] = assay: Drug metabolism in human hepatocytes assessed as (R)-2-(4-(trifluoromethylsulfonyloxy)phenyl)propanoic acid level at 10 uM after 120 mins; type: ADME, cell-based; settings: 2 h
CYP2C9 = CYP2C9 (Homo sapiens, UniProt P11712); assay: Inhibition of CYP2C9 using 7MFC as substrate at 10 uM; type: ADME; settings: probe 7MFC
CYP2C9, sequence (P11712 whole entry): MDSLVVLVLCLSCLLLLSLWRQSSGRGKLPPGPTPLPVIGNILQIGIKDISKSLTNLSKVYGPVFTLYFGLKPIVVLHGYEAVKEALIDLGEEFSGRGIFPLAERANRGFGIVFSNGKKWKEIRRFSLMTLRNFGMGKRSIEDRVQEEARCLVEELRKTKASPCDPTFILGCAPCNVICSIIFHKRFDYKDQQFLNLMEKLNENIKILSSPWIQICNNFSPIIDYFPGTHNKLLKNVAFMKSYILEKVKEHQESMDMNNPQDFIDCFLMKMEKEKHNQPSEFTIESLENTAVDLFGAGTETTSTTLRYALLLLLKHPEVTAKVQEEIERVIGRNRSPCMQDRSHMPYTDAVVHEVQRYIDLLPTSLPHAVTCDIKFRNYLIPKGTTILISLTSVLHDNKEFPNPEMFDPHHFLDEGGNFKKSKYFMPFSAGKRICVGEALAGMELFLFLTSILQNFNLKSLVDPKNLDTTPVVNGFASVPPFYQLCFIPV

CYP3A4 = CYP3A4 (Homo sapiens, UniProt P08684); assay: Inhibition of CYP3A4 using BFC as substrate at 10 uM; type: ADME; settings: probe BFC
CYP3A4, sequence (P08684 whole entry): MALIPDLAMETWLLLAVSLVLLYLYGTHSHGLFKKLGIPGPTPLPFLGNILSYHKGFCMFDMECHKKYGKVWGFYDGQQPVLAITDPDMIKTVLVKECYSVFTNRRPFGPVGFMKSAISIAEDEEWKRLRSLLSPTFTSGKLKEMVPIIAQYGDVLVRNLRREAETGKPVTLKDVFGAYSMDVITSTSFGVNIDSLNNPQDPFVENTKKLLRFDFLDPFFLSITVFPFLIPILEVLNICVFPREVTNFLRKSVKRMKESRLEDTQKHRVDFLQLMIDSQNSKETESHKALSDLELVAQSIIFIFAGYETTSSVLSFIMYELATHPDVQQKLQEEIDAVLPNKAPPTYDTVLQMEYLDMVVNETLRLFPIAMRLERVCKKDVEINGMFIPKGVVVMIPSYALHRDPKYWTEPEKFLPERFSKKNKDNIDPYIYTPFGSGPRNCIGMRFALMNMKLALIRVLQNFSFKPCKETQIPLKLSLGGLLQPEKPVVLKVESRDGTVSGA

CYP2D6 = CYP2D6 (Homo sapiens, UniProt P10635); assay: Inhibition of CYP2D6 using AMMC as substrate at 10 uM; type: ADME; settings: probe AMMC
CYP2D6, sequence (P10635 whole entry): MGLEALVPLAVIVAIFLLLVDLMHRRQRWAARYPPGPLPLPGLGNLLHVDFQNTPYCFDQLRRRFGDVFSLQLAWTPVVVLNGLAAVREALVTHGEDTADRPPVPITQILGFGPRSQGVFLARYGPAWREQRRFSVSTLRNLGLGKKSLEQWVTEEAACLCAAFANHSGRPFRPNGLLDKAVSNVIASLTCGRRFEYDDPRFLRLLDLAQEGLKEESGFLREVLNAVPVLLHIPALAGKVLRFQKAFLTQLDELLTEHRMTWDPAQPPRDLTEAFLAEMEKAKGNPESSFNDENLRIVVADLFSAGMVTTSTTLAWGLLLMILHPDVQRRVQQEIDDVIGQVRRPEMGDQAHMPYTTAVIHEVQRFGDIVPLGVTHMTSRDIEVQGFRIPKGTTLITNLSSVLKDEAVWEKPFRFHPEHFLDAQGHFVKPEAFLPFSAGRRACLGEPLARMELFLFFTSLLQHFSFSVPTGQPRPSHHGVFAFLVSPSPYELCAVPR

CYP1A2 = biological target: T1, CYP1A2 (Homo sapiens, UniProt P05177); assay: Inhibition of CYP1A2 using CEC as substrate at 10 uM; type: ADME; settings: probe CEC
T1 sequence (P05177 whole entry): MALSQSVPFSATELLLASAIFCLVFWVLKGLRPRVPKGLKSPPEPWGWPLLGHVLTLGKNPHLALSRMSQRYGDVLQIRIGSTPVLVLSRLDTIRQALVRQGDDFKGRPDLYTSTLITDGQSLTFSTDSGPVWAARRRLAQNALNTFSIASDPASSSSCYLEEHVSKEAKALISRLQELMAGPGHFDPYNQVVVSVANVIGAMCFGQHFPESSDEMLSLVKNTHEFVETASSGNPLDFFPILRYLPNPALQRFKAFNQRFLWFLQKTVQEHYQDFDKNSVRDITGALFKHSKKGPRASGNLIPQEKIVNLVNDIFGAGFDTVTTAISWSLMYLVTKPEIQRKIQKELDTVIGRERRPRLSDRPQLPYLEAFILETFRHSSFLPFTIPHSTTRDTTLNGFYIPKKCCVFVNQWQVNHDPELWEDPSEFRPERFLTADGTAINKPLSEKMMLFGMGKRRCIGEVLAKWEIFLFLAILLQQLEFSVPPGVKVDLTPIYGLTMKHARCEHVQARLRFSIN

[18] = biological target: T2, C-X-C chemokine receptor type 2 (Homo sapiens) (UniProt P25025); assay: Inhibition of CXCR2 in human polymorphonucleate cells assessed as inhibition of CXCL1-induced chemotaxis at 10^-8 M incubated for 15 mins prior to CXCL1-induction measured after 45 mins
T2 sequence (whole entry): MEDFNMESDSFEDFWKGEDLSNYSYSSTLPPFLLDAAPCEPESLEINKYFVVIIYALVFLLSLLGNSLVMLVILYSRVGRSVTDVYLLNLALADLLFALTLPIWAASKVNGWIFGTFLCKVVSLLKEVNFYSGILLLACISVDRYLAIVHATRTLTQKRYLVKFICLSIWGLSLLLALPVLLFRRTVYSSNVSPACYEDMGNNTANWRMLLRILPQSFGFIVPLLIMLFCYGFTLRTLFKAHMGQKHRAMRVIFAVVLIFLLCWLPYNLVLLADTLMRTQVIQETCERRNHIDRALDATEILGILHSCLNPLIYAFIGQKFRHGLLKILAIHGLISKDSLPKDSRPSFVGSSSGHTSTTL

[19] = biological target: Interleukin-8 receptors, CXCR1/CXCR2 (Homo sapiens) (UniProt P25025+P25024); assay: Inhibition of CXCR1/2 in human polymorphonucleate cells assessed as inhibition of CXCL8-induced chemotaxis at 10^-8 M incubated for 15 mins prior to CXCL8-induction measured after 45 mins
[20] = Clearance in Sprague-Dawley rat at 14 mg/kg, iv; type: ADME, organism-based; parameters: dose 14 mg/kg, route intravenous; settings: in vivo
[21] = Oral bioavailability in Sprague-Dawley rat at 14 mg/kg; type: ADME, organism-based; settings: in vivo
[22] = Elimination half life in Sprague-Dawley rat at 14 mg/kg, iv; type: ADME, organism-based; parameters: dose 14 mg/kg, route intravenous; settings: in vivo, read-out: beta t1/2 (converted)
[23] = biological target: Voltage-gated inwardly rectifying potassium channel KCNH2 (Homo sapiens, UniProt Q12809); assay: Displacement of [3H]astemizole from human ERG expressed in HEK293 cells at 10 uM for 60 mins by liquid scintillation counting; type: cell-based; settings: hek293, 1 h
Voltage-gated inwardly rectifying potassium channel KCNH2, sequence (Q12809 whole entry): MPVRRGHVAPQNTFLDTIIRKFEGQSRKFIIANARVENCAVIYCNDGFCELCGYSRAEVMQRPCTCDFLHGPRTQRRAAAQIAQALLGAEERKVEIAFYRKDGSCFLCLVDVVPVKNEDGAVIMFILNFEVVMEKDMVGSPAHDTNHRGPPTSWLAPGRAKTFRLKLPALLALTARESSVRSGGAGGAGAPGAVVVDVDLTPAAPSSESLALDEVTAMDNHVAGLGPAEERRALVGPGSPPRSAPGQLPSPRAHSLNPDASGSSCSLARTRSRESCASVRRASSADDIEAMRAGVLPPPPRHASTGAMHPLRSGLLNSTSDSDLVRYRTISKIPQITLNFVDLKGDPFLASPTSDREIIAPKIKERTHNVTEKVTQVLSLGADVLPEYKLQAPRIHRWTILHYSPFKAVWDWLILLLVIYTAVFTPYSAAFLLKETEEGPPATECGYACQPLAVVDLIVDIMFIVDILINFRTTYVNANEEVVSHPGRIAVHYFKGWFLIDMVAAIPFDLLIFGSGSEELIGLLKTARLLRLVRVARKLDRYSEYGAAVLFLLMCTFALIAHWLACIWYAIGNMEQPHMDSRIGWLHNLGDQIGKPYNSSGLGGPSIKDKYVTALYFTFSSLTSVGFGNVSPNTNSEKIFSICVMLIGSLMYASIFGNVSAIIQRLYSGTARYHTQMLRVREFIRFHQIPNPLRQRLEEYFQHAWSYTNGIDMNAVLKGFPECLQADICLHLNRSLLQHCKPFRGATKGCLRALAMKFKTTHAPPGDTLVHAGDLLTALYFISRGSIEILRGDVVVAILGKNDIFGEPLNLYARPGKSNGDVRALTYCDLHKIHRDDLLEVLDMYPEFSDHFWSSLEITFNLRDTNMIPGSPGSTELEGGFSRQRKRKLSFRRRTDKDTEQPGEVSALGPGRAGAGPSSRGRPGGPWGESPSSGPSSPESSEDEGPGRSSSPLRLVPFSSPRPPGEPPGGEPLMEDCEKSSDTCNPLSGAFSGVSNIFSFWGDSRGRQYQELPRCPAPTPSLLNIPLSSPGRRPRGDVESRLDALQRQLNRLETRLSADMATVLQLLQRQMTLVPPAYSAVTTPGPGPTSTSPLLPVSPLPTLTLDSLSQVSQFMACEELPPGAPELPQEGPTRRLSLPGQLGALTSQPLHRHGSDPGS

[24] = Dissociation constant, pKa of the compound; type: physicochemical
Hepatocyte [25] = assay: Drug metabolism in rat hepatocytes assessed as (R)-2-(4-(trifluoromethylsulfonyloxy)phenyl)propanoic acid level at 10 uM after 120 mins; type: ADME, cell-based; settings: 2 h
Hepatocyte [26] = assay: Drug metabolism in rat hepatocytes assessed as (R)-2-(4-(trifluoromethylsulfonyloxy)phenyl)propanoic acid level at 10 uM after 90 mins; type: ADME, cell-based; settings: 1.5 h
Hepatocyte [27] = assay: Drug metabolism in rat hepatocytes assessed as (R)-2-(4-(trifluoromethylsulfonyloxy)phenyl)propanoic acid level at 10 uM after 60 mins; type: ADME, cell-based; settings: 1 h
Hepatocyte [28] = assay: Drug metabolism in rat hepatocytes assessed as (R)-2-(4-(trifluoromethylsulfonyloxy)phenyl)propanoic acid level at 10 uM after 30 mins; type: ADME, cell-based; settings: 0.5 h
Hepatocyte [29] = assay: Drug metabolism in rat hepatocytes assessed as (R)-2-(4-(trifluoromethylsulfonyloxy)phenyl)propanoic acid level at 10 uM after 15 mins; type: ADME, cell-based; settings: 0.25 h
Hepatocyte [30] = assay: Drug metabolism in rat hepatocytes assessed as (S)-2-(4-(trifluoromethylsulfonyloxy)phenyl)propanoic acid level at 10 uM after 120 mins; type: ADME, cell-based; settings: 2 h
Hepatocyte [31] = assay: Drug metabolism in rat hepatocytes assessed as (S)-2-(4-(trifluoromethylsulfonyloxy)phenyl)propanoic acid level at 10 uM after 90 mins; type: ADME, cell-based; settings: 1.5 h

## C[C@@H](C(=O)NS(C)(=O)=O)c1ccc(OS(=O)(=O)C(F)(F)F)cc1 [LADARIXIN]
Hepatocyte [1]
  Drug metabolism: 50 ng/mL
Hepatocyte [2]
  Drug metabolism: 31 ng/mL
Hepatocyte [3]
  Drug metabolism: 7 ng/mL
Hepatocyte [4]
  Drug metabolism: 6 ng/mL
Hepatocyte [5]
  Drug metabolism: 3 ng/mL
Hepatocyte [6]
  Drug metabolism: 2 ng/mL
Hepatocyte [7]
  Drug metabolism: < 1 ng/mL
Hepatocyte [8]
  Drug metabolism: < 1 ng/mL
[9]
  remaining at 2 h: 30%
[10]
  remaining at 2 h: > 99%
[11]
  remaining at 0.5 h, 1 µM: 100%
[12]
  remaining at 1 h, 1 µM: 100%
CYP2C19
  inhibition at 10 µM: < 5%
Hepatocyte [13]
  Drug metabolism: < 1 ng/mL
Hepatocyte [14]
  Drug metabolism: 3 ng/mL
Hepatocyte [15]
  Drug metabolism: 15 ng/mL
Hepatocyte [16]
  Drug metabolism: 20 ng/mL
Hepatocyte [17]
  Drug metabolism: 30 ng/mL
CYP2C9
  inhibition at 10 µM: < 5%
CYP3A4
  inhibition at 10 µM: < 5%
CYP2D6
  inhibition at 10 µM: < 5%
CYP1A2
  inhibition at 10 µM: < 5%
[18]
  inhibition: 68%
[19]
  inhibition: 67%
[20]
  clearance: 0.1 mL/min/kg
[21]
  bioavailability: 100%
[22]
  half-life: 19 h
[23]
  inhibition (INH): Not Active
[24]
  pKa: 4.4
Hepatocyte [25]
  Drug metabolism: 4 ng/mL
Hepatocyte [26]
  Drug metabolism: 5 ng/mL
Hepatocyte [27]
  Drug metabolism: 3 ng/mL
Hepatocyte [28]
  Drug metabolism: 5 ng/mL
Hepatocyte [29]
  Drug metabolism: 22 ng/mL
Hepatocyte [30]
  Drug metabolism: 56 ng/mL
Hepatocyte [31]
  Drug metabolism: 54 ng/mL
